Test results taken from patent US20230000876A1, “TREATING CANCERS WITH A CYCLIN-DEPENDENT KINASE INHIBITOR” (Nuvation Bio Inc., priority 2021, published 2023).
Like-named read-outs stand apart in the source and are kept apart here.

Columns and labels:
[1] = test system: COLO 829; experiment: Cell viability assay, melanoma cell line COLO 829; type: cell-based
Procedure: (§1) 4.4.4 Compound Plate (10×) Preparation and Compound Treatment • 10× concentrate compound plate preparation: Add 198 μL of assay medium into each well of the V-bottom plate; then transfer 2 μL of the stock compound solution of each concentration from the stock plate. Add 2 μL of DMSO into the Blank and Control wells. Pipette up and down to mix well. This V-plate is designated as the 10× concentrate compound plate. • For day 0 plate, add 15 μL of the DMSO-medium into the Control wells. The final DMSO concentration was 0.1%. Then directly proceed to cell viability assay. • For assay plate, add 15 μL of the compound-medium of each well from the 10× concentrate compound plate into the cells in 96-well assay plate according to the plate map. Add 15 μL of the DMSO-medium into the Blank and Control wells. The final DMSO concentration was 0.1%. • Return the assay plate into incubator and incubate for 6 days.
(§2) The procedures were performed according to the Promega CellTiter-Glo Luminescent Cell Viability Assay Kit manual (Promega-G7573). • The CellTiter-Glo buffer was thawed and equilibrated to room temperature prior to use. • CellTiter-Glo Substrate was equilibrated to room temperature prior to use. • The entire liquid volume of CellTiter-Glo Buffer was transferred into the amber bottle containing CellTiter-Glo Substrate to reconstitute the lyophilized enzyme/substrate mixture. […] Plates were covered with aluminum foil to protect from light. • The contents were mixed for 2 minutes on an orbital shaker to induce cell lysis. • The plate was incubated at room temperature for 20 minutes to stabilize luminescent signal. • Record luminescence on the 2104 EnVision plate reader.
(§3) Inhibition rate (IR) of the tested compounds was determined by the following formula: IR (%)=(1−(RLU compound−RLU day0)/(RLU control−RLU day0))*100%. The inhibitions of different dose of compound were calculated in Excel file, and then were used to plot inhibition curves and evaluate related parameters, such as Min (%), Max (%) and GI50. […]

[2] = test system: SK-MEL-24; experiment: Cell viability assay, melanoma cell line SK-MEL-24; type: cell-based
Procedure: as §1, §2, §3

[3] = test system: MCF-7 tumors; type: in vivo; details: for T/C / TGI: PG-D37
Procedure: The in vivo anti-tumor efficacy of the compound of formula (I) either alone or in combination with fulvestrant on MCF-7 breast tumor model on female Balb/c nude mice was assessed. MCF-7 cells are a breast cancer cell line that is HR+HER2−. See Booms et al., (2019) Cancer Epidemiol Biomarkers Prev 28(10); 1735-1745, which is hereby incorporated by reference.
The study was in two parts. The first part was designed to measure tumor growth inhibition (TGI). The second part was used to measure pharmacokinetic and pharmacodynamic (PKPD) parameters. In the studies, the compound of formula (I) was dosed orally (po) and fulvestrant was dosed subcutaneously. […]
The MCF-7 tumor cells were maintained in vitro in MEM supplemented with 10% heat inactivated fetal bovine serum at 37° C. in an atmosphere of 5% CO2 in air. The tumor cells were routinely subcultured twice weekly. The cells growing in an exponential growth phase were harvested and counted for tumor inoculation.
Each mouse was inoculated subcutaneously at the right flank with MCF-7 (10*10^6) cells in 0.2 mL of PBS mixed with Matrigel (50:50) for tumor development. 17β-Estradiol (0.36 mg, 60-day release) pellets (Innovative Research of America Cat. No.: SE-121, pellet size: 3.0 mm) were implanted 2 days before cell inoculation.
In TGI part, the treatments was started on day 7 after cell inoculation when the average tumor volume reaches 173 mm^3. 72 mice were selected and assigned into 9 groups. The testing articles were administrated to the mice according to Table 1.
For TGI part, the major endpoint was to see if the tumor growth could be delayed or mice could be cured. Tumor size was measured twice weekly in two dimensions using a caliper, and the volume was expressed in mm^3 using the formula: V=0.5 a×b^2 where a and b are the long and short diameters of the tumor, respectively. The tumor sizes are then used for the calculation of T/C and TGI values.
The T/C value (in percent) is an indication of antitumor effectiveness; T and C are the mean volume of the treated and control groups, respectively, on a given day.
TGI was calculated for each group using the formula: TGI (%)=[1−(Ti−T0)/(Vi−V0)]×100; Ti is the average tumor volume of a treatment group on PG-Di, T0 is the average tumor volume of the treatment group on the day of treatment start, Vi is the average tumor volume of the vehicle control group on the same day with Ti, and V0 is the average tumor volume of the vehicle group on the day of treatment start.
For comparison among of tumor volume of groups 2-9 and group 1, a one-way ANOVA was performed. All the analysis were conducted using GraphPad Prism software. p<0.05 was considered to be statistically significant.

For `CC(C)N1CCOc2c(F)cc(-c3nc(Nc4ccc(C5CCN(C)CC5)cn4)ncc3F)cc21` [Compound (I), 5-fluoro-4-(8-fluoro-4-isopropyl-3,4-dihydro-2H-benzo[b][1,4]oxazin-6-yl)-N-(5-(1-methylpiperidin-4-yl)pyridin-2-yl)pyrimidin-2-amine], the GI50 ([1]; Homo sapiens, COLO-829, read-out: Absolute GI50) was 875 nM, the “Max (%)” value ([1]; inhibition rate) was 107.94% and the “Min (%)” value ([1]; inhibition rate) was −3.11%. For the same compound, the GI50 ([2]; Homo sapiens, SK-MEL-24, read-out: Absolute GI50) was 151 nM, the “Max (%)” value ([2]; inhibition rate) was 113.43% and the “Min (%)” value ([2]; inhibition rate) was 1.36%. The “Tumor volume (mean ± SEM)” value ([3]; 10 mg/kg PO QD, day 0) was 173 ± 12 mm^3, the “Tumor volume (mean ± SEM)” value ([3]; 10 mg/kg PO QD, day 3) was 195 ± 14 mm^3 and the “Tumor volume (mean ± SEM)” value ([3]; 10 mg/kg PO QD, day 6) was 188 ± 25 mm^3. The “Tumor volume (mean ± SEM)” value ([3]; 10 mg/kg PO QD, day 9) was 185 ± 15 mm^3, the “Tumor volume (mean ± SEM)” value ([3]; 10 mg/kg PO QD, day 13) was 179 ± 21 mm^3 and the “Tumor volume (mean ± SEM)” value ([3]; 10 mg/kg PO QD, day 16) was 187 ± 22 mm^3. The “Tumor volume (mean ± SEM)” value ([3]; 10 mg/kg PO QD, day 20) was 228 ± 36 mm^3, the “Tumor volume (mean ± SEM)” value ([3]; 10 mg/kg PO QD, day 23) was 268 ± 37 mm^3 and the “Tumor volume (mean ± SEM)” value ([3]; 10 mg/kg PO QD, day 27) was 310 ± 56 mm^3. The “Tumor volume (mean ± SEM)” value ([3]; 10 mg/kg PO QD, day 30) was 358 ± 60 mm^3, the “Tumor volume (mean ± SEM)” value ([3]; 10 mg/kg PO QD, day 34) was 446 ± 93 mm^3 and the “Tumor volume (mean ± SEM)” value ([3]; 10 mg/kg PO QD, day 37) was 505 ± 116 mm^3. The “Tumor volume (mean ± SEM)” value ([3]; 10 mg/kg PO QD, day 41) was 530 ± 113 mm^3, the “Tumor volume (mean ± SEM)” value ([3]; 10 mg/kg PO QD, day 44) was 468 ± 99 mm^3 and the “Tumor volume (mean ± SEM)” value ([3]; 10 mg/kg PO QD, day 48) was 472 ± 120 mm^3. For the same compound, the T/C ([3]; 10 mg/kg QD) was 25.18%, the TGI ([3]; 10 mg/kg QD) was 81.88% and the “Tumor volume (mean ± SEM)” value ([3]; 30 mg/kg PO QD, day 0) was 173 ± 11 mm^3. For the same compound, the “Tumor volume (mean ± SEM)” value ([3]; 30 mg/kg PO QD, day 3) was 192 ± 16 mm^3, the “Tumor volume (mean ± SEM)” value ([3]; 30 mg/kg PO QD, day 6) was 151 ± 24 mm^3 and the “Tumor volume (mean ± SEM)” value ([3]; 30 mg/kg PO QD, day 9) was 153 ± 19 mm^3. The “Tumor volume (mean ± SEM)” value ([3]; 30 mg/kg PO QD, day 13) was 147 ± 17 mm^3, the “Tumor volume (mean ± SEM)” value ([3]; 30 mg/kg PO QD, day 16) was 154 ± 18 mm^3 and the “Tumor volume (mean ± SEM)” value ([3]; 30 mg/kg PO QD, day 20) was 159 ± 21 mm^3. The “Tumor volume (mean ± SEM)” value ([3]; 30 mg/kg PO QD, day 23) was 175 ± 23 mm^3, the “Tumor volume (mean ± SEM)” value ([3]; 30 mg/kg PO QD, day 27) was 168 ± 25 mm^3 and the “Tumor volume (mean ± SEM)” value ([3]; 30 mg/kg PO QD, day 30) was 186 ± 28 mm^3. For the same compound, the “Tumor volume (mean ± SEM)” value ([3]; 30 mg/kg PO QD, day 34) was 193 ± 34 mm^3, the “Tumor volume (mean ± SEM)” value ([3]; 30 mg/kg PO QD, day 37) was 227 ± 41 mm^3 and the “Tumor volume (mean ± SEM)” value ([3]; 30 mg/kg PO QD, day 41) was 228 ± 51 mm^3. The “Tumor volume (mean ± SEM)” value ([3]; 30 mg/kg PO QD, day 44) was 234 ± 52 mm^3, the “Tumor volume (mean ± SEM)” value ([3]; 30 mg/kg PO QD, day 48) was 206 ± 39 mm^3 and the T/C ([3]; 30 mg/kg QD) was 11.32%. The TGI ([3]; 30 mg/kg QD) was 97.06% and the “Toxicity (body weight as indirect measurement)” value ([3]; MCF-7 tumor-bearing mice, 10 or 30 mg/kg PO QD, alone or with fulvestrant, 49 days) was “not toxic”.
